These results are taken from patent US7045531B1, “Composition comprising a metal chelator and a method of treating amyloidosis by administering the metal chelator” (The General Hospital Corporation, priority 1997, dated 2006).

A short description of series [1]: TBARS assay of OH. production by peptides. The conditions noted are these: 1 μM Fe^3+ or Cu^2+. It counts as biochemical. The procedure: The Thiobarbituric Acid-Reactive Substance (TBARS) assay for incubation mixtures with Fe^3+ or Cu^2+ was performed in a 96-well microtiter format modified from established protocols (Gutteridge et al. Biochim. Biophys. Acta 759: 38–41 (1983)). Aβ peptide species (10 μM) or Vitamin C (100 μM), were incubated with Fe^3+ or Cu^2+ (1 μM) and deoxyribose (7.5 mM, Sigma) in PBS, pH 7.4. Following incubation (37° C., 1 hour), glacial (17 M) acetic acid and 2-thiobarburic acid (1%, w/v in 0.05 M NaOH, Sigma) were added and heated (100° C., 10 min). The final mixtures were placed on ice for 1–3 minutes before absorbances at 532 nm were measured. The net absorbance change for each sample were obtained by deducting the absorbance from a control sample consisting of identical chemical components except for the Vitamin C or Aβ peptides.

Series [2] is described as follows: Cu^+ generation / metal reduction (Example 2). It counts as biochemical. Particulars: 10 μM in PBS; Cu^2+ 10 μM; 30 minutes, 37° C. The procedure: This method is modified from a protocol assaying serum copper and iron (Landers, J. W., et al., Amer. J. Clin. Path. 29:590 (1958)). It is based on the fact that there are optimal visible absorption wavelengths of 483 nm and 535 nm for Cu^+ complexed with bathocuproinedisulfonic (BC) anion and Fe^2+ coordinated by bathophenanthrolinedisulfonic (BP) anion, respectively.
Aβ (10 μM in PBS, pH 7.4 or 6.8, as shown) was incubated for 30 minutes (37° C.) in the presence of Cu^2+ 10 μM±Zn^2+ 10 μM). Cu^+ levels (n=3, ±SD) were assayed against a standard curve.

For series [3] the following is noted: cited from earlier work; for Kd: physiological pH.
The nature of series [4]: Metal reduction assay, Fe^3+ (BP indicator). It counts as biochemical. Particulars: Fe^3+ 10 μM; PBS pH 7.4; 1 hr, 37° C. The procedure:
(§1) The metal reduction assay was performed using a 96-well microtiter plate (Costar) based upon a modification of established protocols (Landers, J. W., et al., Amer. Clin. Path. 29:590 (1958); Landers. J. W. et al., Clinica Chimica Acta 3:329 (1958)). Polypeptides (10 μM) or Vitamin C (100 μM), metal ions (10 μM, Fe(NO3)3 or Cu(NO3)2), and reduced metal ion indicators, bathophenanthrolinedisulfonic acid (BP, for Fe^2+, Sigma, 200 μM) or bathocuproinedisulfonic acid (BC, for Cu^+, Sigma, […]), were coincubated in phosphate buffered saline (PBS), pH 7.4, for 1 hr at 37° C. The metal ion solutions were prepared by direct dilution in the buffer from their aqueous stocks purchased from National Institute of Standards and Technology (NIST). Absorbances were then measured at 536 nm (Fe^2+-BP complex) and 483 nm (Cu^+-BC complex), respectively, using a 96-well plate reader (SPECTRAmax 250, Molecular Devices, Calif.). In control samples, both metal ion and indicator were present to determine the background buffer signal. As a further control, both metal ion and peptide were present in the absence of indicator to estimate the contribution of light scattering due to turbidity to the absorbance reading at these wavelengths. The net absorbances (ΔA) at 536 nm or 483 nm were obtained by deducting the absorbances from these controls from the absorbances generated by the peptide and metal in the presence of the respective indicator.
The concentrations of reduced metal ions (Fe^2+ or Cu^+) were quantified based on the formula: Fe^2+ or Cu^+ (˜M)=A*10^6/(L*M), where L is the measured equivalent vertical pathlength for a well of 300 μL volume as described in the instrument's specifications manual (0.856 cm for Fe^2+; 1.049 cm for Cu^+); M is the known molecular absorbance (M^−1 cm^−1) which is 7124 (for Fe^2+-BP complex) or 2762 (for Cu^+-BC complex).

Series [5] can be described thus: Metal reduction assay, Cu^2+ (BC indicator). The format is biochemical. Particulars: Cu^2+ 10 μM; PBS pH 7.4; 1 hr, 37° C. The procedure: as §1, with “Polypeptides” for “The metal reduction assay was performed using a 96-well microtiter plate (Costar) based upon a modification of established protocols (Landers, J. W., et al., Amer. Clin. Path. 29:590 (1958); Landers. J. W. et al., Clinica Chimica Acta 3:329 (1958)). Polypeptides”

For the next series, the system named is AD. The conditions noted are these: twice daily deep intramuscular injections; cited from earlier work.
Series [6] addresses T1, Aβ1-42 (Homo sapiens, UniProt P05067). As to the kind of experiment: Effect of metal chelators on H2O2 production from Aβ1-42. It counts as biochemical. Particulars: chelator 200 μM; 1 μM Fe^3+.
The nature of series [7]: SDS-resistant polymerization of Aβ peptides with Cu^2+ (Western blot, image analysis). It counts as biochemical. The conditions noted are these: after 5 d; for conversion of the monomer to dimer / conversion of the monomer to trimer: Cu^2+ 30 μM. As for the experimental part:
Following incubation (37° C.), aliquots of each reaction (2 ng peptide) were collected at 0 d, 1 d, 3 d and 5 d and western blotted using anti-Aβ monoclonal antibody 8E10 (FIG. 9). Migration of the molecular size markers are indicated (kDa). […] It should be noted that other means of visualizing and/or determining the presence or absence of polymerization other than western blot analysis may be used. Such other means include but are not limited to density sedimentation by centrifugation of the samples.
As above, electronic images captured using the Fluoro-S Image Analysis System (Bio-Rad, Hercules, Calif.) were analyzed using Multi-Analyst Software (Bio-Rad, Hercules, Calif.).
(0–30 μM) at pH 7.4 and 6.6 and the samples analyzed by Western blot and the signal quantitated using the Fluoro-S Image Analysis System (Bio-Rad, Hercules, Calif.) as previously described.
A general note: Immunoblotting shows a protein as a band on a membrane.

Series [8] is described as follows: Aβ metal-capture ELISA, competition analysis of binding to Cu^2+. Particulars: pH 7.4; read-out: Kd, high affinity saturable Cu^2+ binding site. The procedure: Aβ1-40 (1.5 ng/well) was incubated (37° C., 2 hr) in the wells of Cu^2+ coated microtiter plates (Xenopore, Hawthorne, N.J.) with increasing concentrations of Cu^2+ (1–100 nM) as described by Moir et al., Journal of Biological Chemistry (submitted). Remaining ligand binding sites on well surfaces were blocked with 2% gelatin in tris-buffered saline (TBS) (3 hr at 37° C.) prior to overnight incubation at room temperature with the anti-Aβ mAb 6E10 (Senetek, Maryland Heights, Mich.). Anti-mouse IgG coupled to horseradish peroxidase was then added to each well and incubated for 3 hr at 37° C. Bound antibodies were detected by a 30 minute incubation with stable peroxidase substrate buffer/3,3′,5,5′-Tetramethyl benzidine (SPSB/TMB) buffer, followed by the addition of 2 M sulfuric acid and measurement of the increase in absorbance at 450 nm.
All assays were performed in triplicate and are means±SD, n=3. […] The affinity of Aβ for Cu^2+ is higher than that for Zn^2+ (Bush, A. I., et al., J. Biol. Chem. 269: 12152 (1994)). […] This is supported by the fact that there is both a pH sensitive and insensitive interaction with different metal ions.

Series [9] deals with T1, Aβ1-42. As to the kind of experiment: Modulation of SDS-resistant polymerization of Aβ1-42. It counts as biochemical. Particulars: TCEP 100 μM; with and without Cu^2+; over 3 days. The procedure: Solution concentrations of metal ion and H2O2 were 30 μM and 100 μM, respectively. […] Argon was continuously bubbled through the buffer for 2 h (at 20° C.) before the remainder of the incubation components were added.
It is possible that the decreased polymerization may be due to chelation of Cu^2+ by BC, however given the low binding affinity of BC for Cu^2+ compared with Aβ, it seems likely that the chelation of […] by BC prevents it from inducing SDS-resistant Aβ polymerization. Therefore, Aβ may undergo a hydroxyl radical modification that promotes its assembly into SDS-resistant polymers.

Series [10] relates to Cu^2+-induced Aβ1-40 or Aβ1-42 SDS-resistant polymers. Description: Dissolution of in vitro generated SDS-resistant Aβ polymers. It counts as biochemical, human. Particulars: polymers generated at pH 7.4.
For a further series, the target named is Aβ1-40 (Homo sapiens, UniProt P05067). Particulars: pH 7.4; EDTA chelation.

Where two headings read alike, the source gives them in different places.

T1 sequence (P05067 672-713 limits assumed): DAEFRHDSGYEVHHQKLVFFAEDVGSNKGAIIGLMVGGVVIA
Aβ1-40, sequence (P05067 672-711 limits assumed): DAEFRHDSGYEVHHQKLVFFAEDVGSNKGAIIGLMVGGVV

Consider “rat Aβ1-40: Rat/mouse Aβ1-40 with substitutions R5G, Y10F, H13R (DAEFGHDSGFEVRHQKLVFFAEDVGSNKGAIIGLMVGGVV; Amyloid-beta protein 40; UniProt P12023 672-711, looked up, fragment)”, for which the OH. generation entry in series [1] is on record as “did not generate OH”. Further, the “Cu^2+ reduction / redox reactivity” value in [2] is listed as “does not manifest the redox reactivity”. In series [3], the “KA, zinc, single binding site” value was 3.8 µM. Moreover, in series [4], the “available Fe^3+ reduced” value is “did not significantly facilitate the reduction of Fe^3+”. Besides, the “available Cu^2+ reduced” value in series [5] is on record as “reduced no Cu^2+”.
On to `CC(=O)N(O)CCCCCNC(=O)CCC(=O)N(O)CCCCCNC(=O)CCC(=O)N(O)CCCCCN` [DFO, Desferrioxamine], for which, in the series with AD, the side effects entry was “anaemia”. At Aβ1-42 [6], the “effect on H2O2 formation by Aβ1-42” value was “no effect”.
In general, Kd refers to a measure of binding affinity in units of concentration. Consider Aβ1-40: synthetic human Aβ1-40 peptide, for which the “conversion of the monomer to dimer” value was 29% in [7] (pH 6.6) and 42% in series [7] (pH 7.4). The figures for the “conversion of the monomer to trimer” value in series [7] (pH 6.6) and in series [7] (pH 7.4) were 2% and 9%, respectively. For the same compound, the “peptide converted to the SDS-resistant dimer” value in series [7] (no metal, pH 6.6, 7.4 or 9.0) is recorded as “Less than 4%”. Further, the Kd in series [8] is 0.9 nM; in series [3] (read-out: KD, high affinity zinc binding, 1:1 (Zn^2+:Aβ)), 107 nM; in series [3] (read-out: KD, low affinity zinc binding, 2:1 stoichiometry), 5200 nM. Also, the “available Fe^3+ reduced” value in series [4] is 12%. Further, the “available Cu^2+ reduced” value in series [5] was determined as 60%.
`Cl.O=C(O)CCP(CCC(=O)O)CCC(=O)O` [TCEP, Tris(2-Carboxyethyl)-Phosphine Hydrochloride]: the “effect on level of polymerization of Aβ1-42” value at Aβ1-42 [9] is “significantly reduced the level of polymerization”.
Take `O=C(O)CN(CCN(CC(=O)O)CC(=O)O)CC(=O)O` [EDTA, ethylenediaminetetra acetic acid]: in [10], the “effect on amount of Aβ1-40 or Aβ1-42 SDS-resistant polymers” value is recorded as “less effective”. Moreover, on Aβ1-40, the “reversibility of Cu^2+-induced Aβ1-40 aggregation” value is “reversible”.
